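1) Cells in 96-well plates. 2) Compound, 48 h, 5 concentrations. 3) Linear interpolation between surrounding doses. 4) Unreached endpoint = highest concentration. The concentration for 50% growth inhibition is given as GI50. At the TGI there is no net growth.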
What was measured:
Test in all cases: DTP human tumour cell line panel, 48 h
786-0 renal = test system: 786-0 renal
KM12 colon = test system: KM12 colon
LOX IMVI melanoma = test system: LOX IMVI melanoma
SN12C renal = test system: SN12C renal
OVCAR-3 ovarian = test system: OVCAR-3 ovarian
DU-145 prostate = test system: DU-145 prostate
MOLT-4 leukemia = test system: MOLT-4 leukemia
NCI/ADR-RES ovarian = test system: NCI/ADR-RES ovarian
HS 578T breast = test system: HS 578T breast
TK-10 renal = test system: TK-10 renal
OVCAR-5 ovarian = test system: OVCAR-5 ovarian
T-47D breast = test system: T-47D breast
OVCAR-8 ovarian = test system: OVCAR-8 ovarian
NCI-H226 lung = test system: NCI-H226 lung
UACC-62 melanoma = test system: UACC-62 melanoma
MDA-MB-231 breast = test system: MDA-MB-231 breast
UACC-257 melanoma = test system: UACC-257 melanoma
MDA-MB-435 = test system: MDA-MB-435
HL-60(TB) leukemia = test system: HL-60(TB) leukemia
SK-MEL-5 melanoma = test system: SK-MEL-5 melanoma
SK-MEL-28 melanoma = test system: SK-MEL-28 melanoma
MCF7 breast = test system: MCF7 breast
SF-295 CNS = test system: SF-295 CNS
HCT-15 colon = test system: HCT-15 colon
BT-549 breast = test system: BT-549 breast
HCT-116 colon = test system: HCT-116 colon
CAKI-1 renal = test system: CAKI-1 renal
HCC-2998 colon = test system: HCC-2998 colon
SR leukemia = test system: SR leukemia

CSc1nc(SC)c2cnn(-c3ccnc4cc(Cl)ccc34)c2n1
GI50 (786-0 renal): 38.6 µM | TGI (786-0 renal): > 100 µM | GI50 (KM12 colon): > 100 µM | TGI (KM12 colon): > 100 µM | GI50 (LOX IMVI melanoma): > 59 µM | TGI (LOX IMVI melanoma): > 100 µM | GI50 (SN12C renal): 51 µM | TGI (SN12C renal): > 100 µM | GI50 (OVCAR-3 ovarian): 6.87 µM | TGI (OVCAR-3 ovarian): > 31.2 µM | GI50 (DU-145 prostate): 42.6 µM | TGI (DU-145 prostate): > 67 µM | GI50 (MOLT-4 leukemia): 42.5 µM | TGI (MOLT-4 leukemia): > 89.6 µM | GI50 (NCI/ADR-RES ovarian): 51.2 µM | TGI (NCI/ADR-RES ovarian): > 100 µM | GI50 (HS 578T breast): 23.3 µM | TGI (HS 578T breast): > 100 µM | GI50 (TK-10 renal): 30.9 µM | TGI (TK-10 renal): > 89.1 µM | GI50 (OVCAR-5 ovarian): > 100 µM | TGI (OVCAR-5 ovarian): > 100 µM | GI50 (T-47D breast): > 100 µM | TGI (T-47D breast): > 100 µM | GI50 (OVCAR-8 ovarian): > 56.5 µM | TGI (OVCAR-8 ovarian): > 100 µM | GI50 (NCI-H226 lung): 85.4 µM | TGI (NCI-H226 lung): > 100 µM | GI50 (UACC-62 melanoma): 33.9 µM | TGI (UACC-62 melanoma): > 100 µM | GI50 (MDA-MB-231 breast): 20 µM | TGI (MDA-MB-231 breast): 67.4 µM | GI50 (UACC-257 melanoma): > 49.7 µM | TGI (UACC-257 melanoma): > 86.4 µM | GI50 (MDA-MB-435): 10.7 µM | TGI (MDA-MB-435): > 100 µM | GI50 (HL-60(TB) leukemia): 21.5 µM | TGI (HL-60(TB) leukemia): 50.6 µM | GI50 (SK-MEL-5 melanoma): 51.9 µM | TGI (SK-MEL-5 melanoma): > 100 µM | GI50 (SK-MEL-28 melanoma): > 100 µM | TGI (SK-MEL-28 melanoma): > 100 µM | GI50 (MCF7 breast): 2.61 µM | TGI (MCF7 breast): > 41 µM | GI50 (SF-295 CNS): 5.46 µM | TGI (SF-295 CNS): > 100 µM | GI50 (HCT-15 colon): > 71.3 µM | TGI (HCT-15 colon): > 100 µM | GI50 (BT-549 breast): 43.3 µM | TGI (BT-549 breast): > 87.7 µM | GI50 (HCT-116 colon): 52.9 µM | TGI (HCT-116 colon): > 100 µM | GI50 (CAKI-1 renal): 22.9 µM | TGI (CAKI-1 renal): > 100 µM | GI50 (HCC-2998 colon): 82.7 µM | TGI (HCC-2998 colon): > 100 µM | GI50 (SR leukemia): 7.88 µM | TGI (SR leukemia): > 31.9 µM
